Paper PMC8218635, “Structural Insights into the Mechanisms of Action of Functionally Distinct Classes of Chikungunya Virus Nonstructural Protein 1 Inhibitors” (Antimicrobial Agents and Chemotherapy, 2021)
Like-named read-outs stand apart in the source and are kept apart here.

What was measured:
CHIKV = experiment: microbe, parasite or virus in culture; type: cell-based
rCHIKV G230R + K299E = type: cell-based, Chikungunya virus; conditions: for Fold resistance, rCHIKV G230R + K299E: (EC50 for the variant)/(EC50 for the wt); for EC50: CPE reduction assay, Vero E6 cells; for Sensitivity or resistance of CHIKV nsP1-G230R+K299E to the compound: Fig. 2
rCHIKV S454G + W456R = type: cell-based, Chikungunya virus; conditions: for Fold resistance, rCHIKV S454G + W456R: (EC50 for the variant)/(EC50 for the wt); for EC50: CPE reduction assay, Vero E6 cells; for Sensitivity or resistance of CHIKV nsP1-S454G+W456R to the compound: at the doses tested, Fig. 2
VEEV nsP1 = conditions: cited from earlier work
CHIKV nsP1 = conditions: enzymatic assays measuring either MTase or GTase activity; cited from earlier work
rCHIKV P34S = type: cell-based, Chikungunya virus; conditions: for Fold resistance, rCHIKV P34S: (EC50 for the variant)/(EC50 for the wt); for EC50: CPE reduction assay, Vero E6 cells; for Sensitivity or resistance of CHIKV nsP1-P34S to the compound: at the concentrations tested, Fig. 2
wt SFV nsP1 [1] = target: T1, wt SFV nsP1 (Semliki forest virus, UniProt P08411); type: biochemical; conditions: for Inhibition of formation of the covalent [32P]m7GMP-nsP1 complex: wt SFV nsP1, 100 μM SAM, inhibitor 50 μM to 1 mM, Fig. 3A
T1 sequence (P08411 1-537 limits assumed): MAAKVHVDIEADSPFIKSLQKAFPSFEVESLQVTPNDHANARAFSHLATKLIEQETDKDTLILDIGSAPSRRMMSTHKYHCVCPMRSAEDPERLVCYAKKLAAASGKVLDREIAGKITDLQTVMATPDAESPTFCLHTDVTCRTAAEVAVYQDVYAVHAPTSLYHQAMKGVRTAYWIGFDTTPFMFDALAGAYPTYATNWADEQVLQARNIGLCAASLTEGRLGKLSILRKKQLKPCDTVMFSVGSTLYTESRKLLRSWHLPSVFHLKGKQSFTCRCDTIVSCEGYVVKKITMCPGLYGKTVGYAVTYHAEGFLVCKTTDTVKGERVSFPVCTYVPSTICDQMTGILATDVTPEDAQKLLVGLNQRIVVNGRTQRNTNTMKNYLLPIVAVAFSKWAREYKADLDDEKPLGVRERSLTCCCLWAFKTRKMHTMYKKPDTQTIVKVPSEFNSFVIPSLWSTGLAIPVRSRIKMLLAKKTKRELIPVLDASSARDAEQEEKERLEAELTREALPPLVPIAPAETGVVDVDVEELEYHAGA

wt CHIKV nsP1 = wt CHIKV nsP1 (Chikungunya virus, UniProt Q8JUX6); type: biochemical; conditions: wt CHIKV nsP1, 10 μM SAM; for Inhibition of formation of the covalent [32P]m7GMP-nsP1 intermediate: inhibitor 0.5 to 32 μM, Fig. 3C
in vitro = conditions: African green monkey
SINV = test system: SINV; set-up: method as in PMID 31964798; conditions: cited from earlier work
SFV = experiment: microbe, parasite or virus in culture; type: cell-based; conditions: multicycle CPE reduction assay, Vero E6 cells, NA = not active
wt SFV nsP1 [2] = target: T1, wt SFV nsP1; set-up: method as in PMID 31964798; conditions: cited from earlier work
[3] = Chikungunya virus, Vero C1008, 96 h, read-out: EC50, concentration that reduces virus-induced CPE by 50%, CHIKV, multicycle CPE reduction assay, Vero E6 cells, 96 h
[4] = Chikungunya virus, Vero C1008, read-out: EC50 for wt CHIKV, Table 2, wt CHIKV, CPE reduction assay, Vero E6 cells

| Compound | Fold resistance, rCHIKV G230R + K299E (rCHIKV G230R + K299E) | EC50 (rCHIKV G230R + K299E) [µM] | Sensitivity or resistance of CHIKV nsP1-G230R+K299E to the compound (rCHIKV G230R + K299E) | Fold resistance, rCHIKV S454G + W456R (rCHIKV S454G + W456R) | EC50 (rCHIKV S454G + W456R) [µM] | Sensitivity or resistance of CHIKV nsP1-S454G+W456R to the compound (rCHIKV S454G + W456R) | Fold resistance, rCHIKV P34S (rCHIKV P34S) | EC50 (rCHIKV P34S) [µM] | Sensitivity or resistance of CHIKV nsP1-P34S to the compound (rCHIKV P34S) | EC50 (CHIKV; [3]) [µM] | EC50 (CHIKV; [4]) [µM] | Inhibition of formation of the covalent [32P]m7GMP-nsP1 complex (wt SFV nsP1 [1]) | CC50 (Vero E6 cells; African green monkey) [µM] | CC50 (in vitro) [µM] | Inhibition of formation of the covalent [32P]m7GMP-nsP1 intermediate (wt CHIKV nsP1) | other results |
| --- | --- | --- | --- | --- | --- | --- | --- | --- | --- | --- | --- | --- | --- | --- | --- | --- |
| CNc1ncnc2c1ncn2C1C(O)C(O)C(CCO)C1F (stereo not drawn) [FMA, 6′-β-fluoro-N^6-methyladenosine] | – | – | – | – | – | – | – | – | – | – | – | – | – | – | – | Activity in CHIKV CPE reduction assays (CHIKV; source of the data not stated): inactive |
| Nc1ncnc2c1ncn2[C@@H]1O[C@H](C[C@@H](N)CC[C@H](N)C(=O)O)[C@@H](O)[C@H]1O [Sinefungin, reference compound] | 1.5 | 274.5 ± 0.2 | sensitive | <1 | 110 ± 3.9 | sensitive | <1 | 151 ± 2.5 | sensitive | 185 ± 38.4 | 185 ± 38.4 | very inefficient inhibitor | > 1000 | > 1000 | – | Inhibition of VEEV nsP1 (VEEV nsP1): inhibits; Inhibition of CHIKV nsP1 (CHIKV nsP1): inhibits; Effect on GTase activity in reactions lacking SAM (wt SFV nsP1 [1]; wt SFV nsP1, 50 μM sinefungin, no SAM, Fig. 3B): appeared to stimulate GTase activity; Reduction of the [32P]m7GMP-nsP1 signal (wt CHIKV nsP1; 1 mM compound, Fig. 3D): reduced the signal slightly; Reduction of the [32P]m7GMP-nsP1 signal (wt CHIKV nsP1; 125 to 500 μM compound, Fig. 3D): did not lead to any reduction in the signal |
| NC(=O)c1nc(F)c[nH]c1=O [Favipiravir, reference compound] | 1.7 | 135 ± 5 | sensitive | 1.1 | 89.5 ± 0.2 | sensitive | 1.2 | 95.9 ± 12.8 | sensitive | – | 79.8 ± 1.4 | – | – | – | – | – |
| CCNc1nc(C)cc(N2CCN(C(=O)c3ccc(C)cc3)CC2)n1 [CHVB-066] | <1 | 0.3 ± 0.04 | – | 20.8 | > 12.5 | – | 20.8 | > 12.5 | completely resistant | < 1 | 0.6 ± 0.1 | completely blocked | – | 25 | in a dose-dependent manner | Inhibition of GTase activity of VEEV nsP1 (VEEV nsP1): inhibit the GTase activity |
| 6′-β-Fluoro-homoaristeromycin [FHA] | 14.3 | > 10 | resistant | 1 | – | – | 2.3 | 1.6 ± 0.2 | – | – | – | – | – | – | – | Activity against SINV (SINV): inactive; EC50 (SFV; 32 h): 3.9 ± 3.5 µM; EC50 (CHIKV; CHIKV, multicycle CPE reduction assay, Vero E6 cells, 96 h, read-out: EC50, concentration that reduces virus-induced CPE by 50%): 0.7 ± 0.08 µM; EC50 (CHIKV; Table 2, wt CHIKV, CPE reduction assay, Vero E6 cells, read-out: EC50 for wt CHIKV): 0.7 ± 0.08 µM; CC50 (Vero E6 cells): > 250 µM |
| CCNc1nc(C)cc(N2CCN(C(=O)c3ccc(F)cc3)CC2)n1 [CHVB-032] | 1 | 3.4 ± 0.2 | – | 29.4 | > 100 | completely resistant | 14.4 | 52.4 ± 0.8 | – | 3.4 ± 0.3 | 3.4 ± 0.3 | completely blocked | > 100 | > 100 | in a dose-dependent manner | – |
| CCC1=NC2C(N=NN2c2cccc(OC(C)C)c2)C(=O)N1 (stereo not drawn) [MADTP-372] | <1 | 1.2 ± 0.2 | – | 9.3 | > 25 | cross-resistant | 9.3 | > 25 | completely resistant | 2.7 ± 0.2 | 2.7 ± 0.2 | less effectively | > 100 | > 100 | in a dose-dependent manner | Inhibition of GTase activity of VEEV nsP1 (VEEV nsP1): inhibit the GTase activity |
| Nc1ncnc2c1ncn2C1C(F)=C(CCO)C(O)C1O (stereo not drawn) [FHNA, 6′-fluoro-homoneplanocin A] | 8.6 | > 10 | resistant | 1 | 1.2 ± 0.1 | – | 2.4 | 2.8 ± 0.3 | – | 1.2 ± 0.03 | 1.2 ± 0.03 | – | > 250 | > 250 | – | Activity against SINV (SINV): inactive; EC50 (SFV; Semliki Forest virus, Vero C1008, 32 h): 3.9 to 5.2 µM; EC50 (SFV; 32 h): 5.2 ± 3.2 µM; Inhibition of formation of the covalent [32P]m7GMP-nsP1 intermediate (wt SFV nsP1 [2]; modified SFV nsP1 assay lacking DTT, not shown): to a lesser extent; Reduction of the [32P]m7GMP-nsP1 signal (wt CHIKV nsP1; with or without DTT, 12.5 to 500 μM compound, Fig. 3E): no reduction in the signal |
| Nc1ncnc2c1ncn2C1C(F)=C(CCO)C(=O)C1O (stereo not drawn) [3′-Keto form of FHNA] | – | – | – | – | – | – | – | – | – | – | – | – | – | – | – | Inhibition of formation of the covalent [32P]m7GMP-nsP1 intermediate (wt SFV nsP1 [2]; wt SFV nsP1): only partially inhibited |
